Laboratory results reported in patent publication EP4678638A1, “NEW E3 UBIQUITIN LIGASE LIGAND, PROTEIN DEGRADATION AGENT AND USE THEREOF” (priority 2023, dated 2024).
Read-outs that look alike come from different tables or passages of the source.

What was measured:
[1] = molecular target: T1, human Cereblon WT GST-tagged protein (Homo sapiens, UniProt Q96SW2); assay: CRBN binding, HTRF (CEREBLON BINDING kit); conditions: for inhibition at 0.5 µM: read-out: Inhibition rate (%) at 0.5µM; for inhibition at 2 µM: read-out: Inhibition rate (%) at 2 µM
T1 construct: purchased CISBIO 64BDCRBNPEH
T1 sequence (Q96SW2 whole entry): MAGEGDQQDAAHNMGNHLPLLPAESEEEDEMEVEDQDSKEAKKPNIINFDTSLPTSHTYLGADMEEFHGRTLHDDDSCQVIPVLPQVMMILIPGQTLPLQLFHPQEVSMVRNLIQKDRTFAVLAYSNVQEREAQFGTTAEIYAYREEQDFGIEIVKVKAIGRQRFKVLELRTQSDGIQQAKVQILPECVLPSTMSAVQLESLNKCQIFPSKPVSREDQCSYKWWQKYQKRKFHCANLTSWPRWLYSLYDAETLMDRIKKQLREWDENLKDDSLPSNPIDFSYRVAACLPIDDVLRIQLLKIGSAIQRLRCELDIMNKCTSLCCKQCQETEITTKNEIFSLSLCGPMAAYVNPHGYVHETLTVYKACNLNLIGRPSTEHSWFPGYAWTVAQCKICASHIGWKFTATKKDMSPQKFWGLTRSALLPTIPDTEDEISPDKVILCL
Procedure, shortened: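 Competitive HTRF: GST-tagged human WT Cereblon mixed with compound, Thalidomide-Re tracer and GST Eu antibody, incubated 3 h at room temperature. Signals read at 620 and 665 nm.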

TMD8 = assay: CCK-8 proliferation, TMD8; assay type: cell-based; conditions: Homo sapiens, read-out: Inhibitory activity (IC50) on tumor cell proliferation, TMD8
Experimental: (§1) The tumor cells used herein were cultured in a cell culture medium listed in table A1 at 37°C in an incubator with 5% CO2. Prior to experimentation, all cell lines used were correctly identified by STR profiling, and tested negative for mycoplasma contamination using a mycoplasma detection kit through routine screenings. Table A1. Tumor cells and cell culture medium used in the present disclosure
(§2) IC50 values of the compounds of the present disclosure (including the compounds in Table 1, and compounds of examples) were measured using the Meilun Cell Counting Kit-8 kit from Dalian Meilun Biotech Co., Ltd. Assay details are as follows: tumor cells were seeded in a 96-well plate at a density listed in Table A2. After 24h, 100 µL of the inoculated cells were treated with 0.5µL of the compounds of the present disclosure (including the compounds in Tables 1 and 2, and compounds of examples) at 10 different successively decreasing concentrations (starting at the highest concentration of 10µM; 5-fold serial dilutions). After the cells were treated with the compounds of the present disclosure for a period of time, the cell viability detection reagent was added to the culture medium for cell viability assessment according to the instructions provided with the CCK-8 kit. […] The growth inhibition of the compounds of the present disclosure on cells was plotted by Prism Graphpad software, and the IC50 values of the compounds of the present disclosure were calculated therefrom. […] Seeding protocol and treatment time for tumor cells

SU-DHL-6 = assay: CCK-8 proliferation, SU-DHL-6; assay type: cell-based; conditions: Homo sapiens, read-out: Inhibitory activity (IC50) on tumor cell proliferation, SU-DHL-6
Experimental: as §1, §2

H520 = assay: CCK-8 proliferation, H520; assay type: cell-based; conditions: Homo sapiens, NCI-H520, 96 hours, read-out: Inhibitory activity (IC50) on tumor cell proliferation, H520
Experimental: as §1, §2

THP-1 = assay: CCK-8 proliferation, THP-1; assay type: cell-based; conditions: Homo sapiens, 72 hours, read-out: Inhibitory activity (IC50) on tumor cell proliferation, THP-1
Experimental: as §1, §2

MGC-803 = assay: CCK-8 proliferation, MGC-803 (heads: MGC80-3, MGC803); assay type: cell-based, Human; conditions: Homo sapiens, MGC-803; CCK-8; 72 hours; read-out: Inhibitory activity (IC50) on tumor cell proliferation, MGC80-3
Procedure, shortened: (§3)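 Cells seeded, then after 24 h treated with 10 concentrations (top 10 µM, 5-fold serial dilution) for a line-specific time at 37°C, 5% CO2. Viability read by CCK-8; IC50 fitted from growth-inhibition curves.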

BXPC-3 = assay: CCK-8 proliferation, BXPC-3; assay type: cell-based; conditions: Homo sapiens, 96 hours, read-out: Inhibitory activity (IC50) on tumor cell proliferation, BXPC-3
Experimental: as §1, §2

LNcap = assay: CCK-8 proliferation, LNcap; assay type: cell-based; conditions: Homo sapiens, LNCaP; CCK-8; 96 hours; read-out: Inhibitory activity (IC50) on tumor cell proliferation, Lncap
Procedure, shortened: as §3

CCRF-CEM = assay: CCK-8 proliferation, CCRF-CEM; assay type: cell-based, Human; conditions: Homo sapiens, CCRF-CEM; CCK-8; 96 hours; read-out: Inhibitory activity (IC50) on tumor cell proliferation, CCRF-CEM
Procedure, shortened: as §3

SW620 = assay: CCK-8 proliferation, SW620; assay type: cell-based; conditions: Homo sapiens, read-out: Inhibitory activity (IC50) on tumor cell proliferation, SW620
Procedure, shortened: as §3

LS174T = assay: CCK-8 proliferation, LS174T; assay type: cell-based; conditions: Homo sapiens, read-out: Inhibitory activity (IC50) on tumor cell proliferation, LS174T
Experimental: IC50 values of the compounds of the present disclosure (including the compounds in Table 1, and compounds of examples) were measured using the Meilun Cell Counting Kit-8 kit from Dalian Meilun Biotech Co., Ltd. Assay details are as follows: tumor cells were seeded in a 96-well plate at a density listed in Table A2. After 24h, 100 µL of the inoculated cells were treated with 0.5µL of the compounds of the present disclosure (including the compounds in Tables 1 and 2, and compounds of examples) at 10 different successively decreasing concentrations (starting at the highest concentration of 10µM; 5-fold serial dilutions). After the cells were treated with the compounds of the present disclosure for a period of time, the cell viability detection reagent was added to the culture medium for cell viability assessment according to the instructions provided with the CCK-8 kit. […] The growth inhibition of the compounds of the present disclosure on cells was plotted by Prism Graphpad software, and the IC50 values of the compounds of the present disclosure were calculated therefrom. [drawing 1519] Table A2. Seeding protocol and treatment time for tumor cells

Jurkat = assay: CCK-8 proliferation, Jurkat; assay type: cell-based, Human; conditions: Homo sapiens, Jurkat; CCK-8; 96 hours; read-out: Inhibitory activity (IC50) on tumor cell proliferation, Jurkat
Procedure, shortened: as §3

H2228 = assay: CCK-8 proliferation, NCI-H2228 (H2228); assay type: cell-based; conditions: Homo sapiens, NCI-H2228, 96 h, read-out: Inhibitory activity (IC50) on tumor cell proliferation, H2228
Procedure, shortened: as §3

H1975 = assay: CCK-8 proliferation, NCI-H1975 (H1975); assay type: cell-based, Human; conditions: Homo sapiens, NCI-H1975, 96 h, read-out: Inhibitory activity (IC50) on tumor cell proliferation, H1975
Procedure, shortened: as §3

PC-9 = assay: CCK-8 proliferation, PC-9; assay type: cell-based, Human; conditions: Homo sapiens, PC-9, 96 h, read-out: Inhibitory activity (IC50) on tumor cell proliferation, PC-9
Procedure, shortened: as §3

MM.1R = assay: CCK-8 proliferation, MM.1R; assay type: cell-based; conditions: 72 h, read-out: Inhibitory activity (IC50) on tumor cell proliferation, MM.1R
Procedure, shortened: as §3

SMILES	IC50 (TMD8; TMD8, CCK-8, 72 hours) [nM]	IC50 (SU-DHL-6; SU-DHL-6, CCK-8, 72 hours) [nM]	IC50 (THP-1) [nM]	IC50 (LNcap) [nM]	IC50 (CCRF-CEM) [nM]	IC50 (SW620; SW-620, CCK-8, 96 hours) [nM]	IC50 (LS174T) [nM]	IC50 (Jurkat) [nM]	other results
Nc1ncnc2c1c(-c1ccc(Oc3ccccc3)cc1)nn2C1CCN(Cc2ccc(C3CCC(=O)NC3=O)c(F)c2)CC1 (centres unmarked) [GT-03508, 3-(4-((4-(4-amino-3-(4-phenoxyphenyl)-1H-pyrazolo[3,4-d]pyrimidin-1-yl)piperidin-1-yl)methyl)-2-fluorophenyl)piperidine-2,6-dione]	100 to 500	500 to 1000	–	–	–	–	–	–	inhibition at 0.5 µM ([1]; Table II-2, CRBN binding screening, HTRF, at 0.5µM): 30 to 40%; inhibition at 2 µM ([1]; Table II-2, CRBN binding screening, HTRF, at 2 µM): 60 to 80%
Cc1ccc(-c2c(C)noc2C)cc1N(CC1CCN(Cc2ccc(N3CCC(=O)NC3=O)cc2F)CC1)c1ccc(C2(C#N)CC2)cc1 [GT-04973, 1-(4-((5-(3,5-dimethylisoxazol-4-yl)-2-methylphenyl)((1-(4-(2,4-dioxotetrahydropyrimidin-1(2H)-yl)-2-fluorobenzyl)piperidin-4-yl)methyl)amino)phenyl)cyclopropane-1-carbonitrile]	–	–	500 to 1000	–	–	–	–	–	IC50 (H520): 500 to 1000 nM; IC50 (MGC-803): 500 to 1000 nM; IC50 (BXPC-3): 100 to 500 nM
Nc1ncnc2c1c(-c1ccc(Oc3ccccc3)cc1)nn2C1CCN(Cc2ccc(C3CCC(=O)NC3=O)cc2)CC1 (centres unmarked) [GT-03507, 3-(4-((4-(4-amino-3-(4-phenoxyphenyl)-1H-pyrazolo[3,4-d]pyrimidin-1-yl)piperidin-1-yl)methyl)phenyl)piperidine-2,6-dione]	100 to 500	500 to 1000	–	–	–	–	–	–	inhibition at 0.5 µM [1]: 30 to 40%; inhibition at 2 µM [1]: 80 to 100%
Cc1ccc(-c2c(C)noc2C)cc1N(CC1CCN(Cc2ccc(N3CCC(=O)NC3=O)cc2)CC1)c1ccc(C2(C#N)CC2)cc1 [GT-04844, 1-(4-((5-(3,5-dimethylisoxazol-4-yl)-2-methylphenyl)((1-(4-(2,4-dioxotetrahydropyrimidin-1(2H)-yl)benzyl)piperidin-4-yl)methyl)amino)phenyl)cyclopropane-1-carbonitrile]	–	–	500 to 1000	–	–	–	–	–	IC50 (H520): 500 to 1000 nM; IC50 (MGC-803): 100 to 500 nM; IC50 (BXPC-3): 100 to 500 nM
Nc1ncnc2c1c(-c1ccc(Oc3ccccc3)cc1)nn2[C@H]1CCN(Cc2ccc(C3CCC(=O)NC3=O)c(F)c2)C[C@H]1F (stereo partly drawn) [GT-03513, 3-(4-(((3R,4S)-4-(4-amino-3-(4-phenoxyphenyl)-1H-pyrazolo[3,4-d]pyrimidin-1-yl)-3-fluoropiperidin-1-yl)methyl)-2-fluorophenyl)piperidine-2,6-dione]	100 to 500	100 to 500	–	–	–	–	–	–	–
CC1(C)CCC(c2ccc(Cl)cc2)=C(CN2CCN(c3ccc(C(=O)NS(=O)(=O)c4ccc(N[C@H](CCN5CCN(Cc6ccc(C7CCC(=O)NC7=O)c(F)c6)CC5)CSc5ccccc5)c(S(=O)(=O)C(F)(F)F)c4)cc3)CC2)C1 (stereo partly drawn) [GT-04152, 4-(4-((4'-chloro-4,4-dimethyl-3,4,5,6-tetrahydro-[1,1'-biphenyl]-2-yl)methyl)piperazin-1-yl)-N-((4-(((2R)-4-(4-(4-(2,6-dioxopiperidin-3-yl)-3-fluorobenzyl)piperazin-1-yl)-1-(phenylthio)butan-2-yl)amino)-3-((trifluoromethyl)sulfonyl)phenyl)sulfonyl)benzamide]	1 to 10	–	10 to 50	50 to 100	1 to 10	1 to 10	50 to 100	1 to 10	–
CC1(C)CCC(CN2CCN(c3ccc(C(=O)NS(=O)(=O)c4ccc(NCC5CCOCC5)c([N+](=O)[O-])c4)c(Oc4cnc5[nH]ccc5c4)c3)CC2)=C(c2ccc(Cl)cc2)C1 [ABT-199, Venetoclax, reference compound]	1000 to 5000	–	500 to 1000	> 10000	1000 to 5000	> 10000	> 10000	1000 to 5000	–
Nc1ncnc2c1c(-c1ccc(Oc3ccccc3)cc1)nn2[C@H]1CCN(Cc2ccc(C3CCC(=O)NC3=O)cc2)C[C@H]1F (stereo partly drawn) [GT-03542, 3-(4-(((3R,4S)-4-(4-amino-3-(4-phenoxyphenyl)-1H-pyrazolo[3,4-d]pyrimidin-1-yl)-3-fluoropiperidin-1-yl)methyl)phenyl)piperidine-2,6-dione]	100 to 500	100 to 500	–	–	–	–	–	–	inhibition at 0.5 µM [1]: 20 to 30%; inhibition at 2 µM [1]: 80 to 100%
CC1(C)CCC(c2ccc(Cl)cc2)=C(CN2CCN(c3ccc(C(=O)NS(=O)(=O)c4ccc(N[C@H](CCN5CCN(Cc6cccc(NC7CCC(=O)NC7=O)c6)CC5)CSc5ccccc5)c(S(=O)(=O)C(F)(F)F)c4)cc3)CC2)C1 (stereo partly drawn) [GT-04279, 4-(4-((4'-chloro-4,4-dimethyl-3,4,5,6-tetrahydro-[1,1'-biphenyl]-2-yl)methyl)piperazin-1-yl)-N-((4-(((2R)-4-(4-(3-((2,6-dioxopiperidin-3-yl)amino)benzyl)piperazin-1-yl)-1-(phenylthio)butan-2-yl)amino)-3-((trifluoromethyl)sulfonyl)phenyl)sulfonyl)benzamide]	10 to 50	–	10 to 50	50 to 100	1 to 10	50 to 100	100 to 500	10 to 50	–
C=CC(=O)N1CCC[C@@H](n2nc(-c3ccc(Oc4ccccc4)cc3)c3c(N)ncnc32)C1 [ibrutinib, Ibrutinib, reference compound]	–	–	–	–	–	–	–	–	IC50 (H2228): > 10000 nM; IC50 (SW620; SW-620, 96 h): > 10000 nM; IC50 (TMD8; TMD8, 72 h): > 10000 nM; IC50 (H1975): 500 to 1000 nM; IC50 (SU-DHL-6; SU-DHL-6, 72 h): 100 to 500 nM; IC50 (PC-9): 100 to 500 nM; IC50 (MM.1R): > 10000 nM
